These results are taken from ChEMBL document CHEMBL1641539 (Bioorg Med Chem Lett, 2011).

In series [1] the target is Mitogen-activated protein kinase 14 (Homo sapiens, UniProt Q16539). Nature of the series: Inhibition of recombinant p38alpha after 60 mins by TR-FRET assay.
Series [2] addresses Mitogen-activated protein kinase 9 (Homo sapiens, UniProt P45984). Put plainly: Inhibition of recombinant JNK2 after 60 mins by TR-FRET assay.
For series [3], the target named is Mitogen-activated protein kinase 10 (Homo sapiens, UniProt P53779). Nature of the series: Inhibition of recombinant JNK3 after 60 mins by TR-FRET assay.
Sequence of Mitogen-activated protein kinase 10 (P53779 whole entry): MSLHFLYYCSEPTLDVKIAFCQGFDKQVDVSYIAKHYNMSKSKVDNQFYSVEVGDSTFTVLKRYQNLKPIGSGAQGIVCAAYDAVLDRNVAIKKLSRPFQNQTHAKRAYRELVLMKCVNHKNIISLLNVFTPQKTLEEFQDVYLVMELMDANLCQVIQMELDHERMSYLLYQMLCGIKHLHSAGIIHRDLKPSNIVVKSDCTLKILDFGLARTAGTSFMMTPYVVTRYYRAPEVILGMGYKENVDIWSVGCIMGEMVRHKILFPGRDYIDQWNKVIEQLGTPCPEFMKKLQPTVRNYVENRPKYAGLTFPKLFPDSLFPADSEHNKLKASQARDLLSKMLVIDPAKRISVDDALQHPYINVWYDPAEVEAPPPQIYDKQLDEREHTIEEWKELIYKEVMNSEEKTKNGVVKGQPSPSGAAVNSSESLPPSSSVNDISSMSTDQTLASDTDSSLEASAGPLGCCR
For series [4], the target named is Mitogen-activated protein kinase 8 (Homo sapiens, UniProt P45983). Nature of the series: Inhibition of recombinant JNK1 after 60 mins by TR-FRET assay.
Sequence of Mitogen-activated protein kinase 8 (P45983 whole entry): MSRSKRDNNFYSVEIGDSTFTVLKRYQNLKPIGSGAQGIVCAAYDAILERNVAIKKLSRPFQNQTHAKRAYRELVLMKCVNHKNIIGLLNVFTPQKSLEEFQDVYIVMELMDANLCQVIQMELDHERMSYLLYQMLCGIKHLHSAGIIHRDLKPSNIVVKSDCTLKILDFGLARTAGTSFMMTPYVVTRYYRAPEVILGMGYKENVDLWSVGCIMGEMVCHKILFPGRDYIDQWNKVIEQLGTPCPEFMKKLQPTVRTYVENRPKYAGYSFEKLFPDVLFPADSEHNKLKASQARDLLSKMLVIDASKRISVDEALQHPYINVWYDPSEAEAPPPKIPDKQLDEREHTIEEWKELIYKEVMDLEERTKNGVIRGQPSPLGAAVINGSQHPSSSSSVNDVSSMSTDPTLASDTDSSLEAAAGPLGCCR
Series [5] concerns the target Mitogen-activated protein kinase 1 (Homo sapiens, UniProt P28482). Nature of the series: Inhibition of recombinant ERK2 after 60 mins by TR-FRET assay. For orientation: In TR-FRET formats the signal depends on donor and acceptor labels being close together.
A short description of series [6]: Oxidative metabolic stability in mouse liver microsomes assessed as compound remaining at 2 uM after 30 mins. The series is classed as ADME, Microsome. The following applies: read-out: Stability. (In general: Liver microsomes are vesicles of endoplasmic reticulum, rich in cytochrome P450 enzymes.)
Series [7] in a line: Apparent permeability of the compound from apical to basolateral direction in MDCK2 cells at 5 uM after 120 mins. In kind it is ADME, cell-based, Canis lupus familiaris, MDCK-II. The following applies: dog, MDCK.
The nature of series [8]: Oxidative metabolic stability in human liver microsomes assessed as compound remaining at 2 uM after 30 mins. The series is classed as ADME, Microsome. The following applies: read-out: Stability.
Series [9] in a line: Efflux ratio, ratio of permeability from apical to basolateral in MDCK2 cells over expressing MDR1 in presence of P-gp inhibitor to permeability from apical to basolateral in MDCK2 cells over expressing MDR1 in absence of P-gp inhibitor at 5 uM after 120 mins. In kind it is ADME, cell-based, Canis lupus familiaris. The following applies: dog, mdck-ii, 2 h.

Molecules are shown by their SMILES.

Sequence of Mitogen-activated protein kinase 14 (Q16539 whole entry): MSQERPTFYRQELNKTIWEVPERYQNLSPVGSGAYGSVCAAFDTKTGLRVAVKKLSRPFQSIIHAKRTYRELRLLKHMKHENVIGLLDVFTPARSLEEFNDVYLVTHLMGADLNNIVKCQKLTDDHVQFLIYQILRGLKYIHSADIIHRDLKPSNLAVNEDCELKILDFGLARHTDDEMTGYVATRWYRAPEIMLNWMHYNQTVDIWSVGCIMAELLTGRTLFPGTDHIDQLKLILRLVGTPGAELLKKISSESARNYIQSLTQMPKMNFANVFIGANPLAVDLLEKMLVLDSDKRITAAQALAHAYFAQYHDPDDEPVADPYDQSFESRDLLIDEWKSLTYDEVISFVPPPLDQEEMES
Sequence of Mitogen-activated protein kinase 1 (P28482 whole entry): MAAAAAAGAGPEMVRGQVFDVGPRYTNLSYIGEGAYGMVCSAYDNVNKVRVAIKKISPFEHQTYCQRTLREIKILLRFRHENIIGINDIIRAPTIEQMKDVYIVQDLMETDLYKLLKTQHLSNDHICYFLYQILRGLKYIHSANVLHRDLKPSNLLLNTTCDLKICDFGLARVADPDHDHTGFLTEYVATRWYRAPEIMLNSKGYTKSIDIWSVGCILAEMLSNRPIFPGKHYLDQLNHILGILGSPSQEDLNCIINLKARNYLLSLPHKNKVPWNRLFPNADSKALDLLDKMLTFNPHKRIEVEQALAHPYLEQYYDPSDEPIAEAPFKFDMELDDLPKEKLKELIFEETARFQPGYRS
Sequence of Mitogen-activated protein kinase 9 (P45984 whole entry): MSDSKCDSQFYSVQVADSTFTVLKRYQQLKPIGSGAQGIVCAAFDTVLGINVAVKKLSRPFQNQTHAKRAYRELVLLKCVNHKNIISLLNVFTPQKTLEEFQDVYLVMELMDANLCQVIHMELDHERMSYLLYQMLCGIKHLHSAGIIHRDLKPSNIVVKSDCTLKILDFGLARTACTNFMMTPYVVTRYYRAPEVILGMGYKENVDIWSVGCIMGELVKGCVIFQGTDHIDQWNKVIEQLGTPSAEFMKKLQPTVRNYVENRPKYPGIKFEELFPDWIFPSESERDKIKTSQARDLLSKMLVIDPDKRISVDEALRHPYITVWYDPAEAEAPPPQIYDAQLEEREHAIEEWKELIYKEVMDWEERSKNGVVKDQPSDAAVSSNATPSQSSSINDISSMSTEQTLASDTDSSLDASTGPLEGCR

The IC50 is the concentration that gives 50% inhibition. As to `C[C@H](Nc1cc(-c2n[nH]c(=O)n2-c2ccc3ccccc3c2)ccn1)c1ccccc1`, the concentration for half-maximal inhibition (IC50) in series [1] was over 5000 nM; in series [2], over 5000 nM; in series [3], 3900 nM; in series [4] it was over 5000 nM; in series [5] it was over 5000 nM.

By Papp A→B is commonly meant how fast a substance crosses the layer from the apical side. On to `O=c1n(-c2ccccn2)nc(-c2ccnc(NC3CCOCC3)c2)n1-c1ccc2ccccc2c1`, for which the remaining at 0.5 h, 2 µM is 1.5% in [6] and 59% in [8]. Further, the Papp A→B at 2 h, 5 µM in series [7] worked out at 5.1 ×10⁻⁶ cm/s. Moreover, the 50% inhibitory concentration (IC50) in series [1] is over 50000 nM; in series [2], 150 nM; in series [3], 100 nM; in series [4], 1400 nM; in series [5], over 50000 nM. In addition, the Ratio in series [9] was determined as 1.5.

As to `O=c1[nH]nc(-c2ccnc(NC3CCOCC3)c2)n1-c1ccc2cc(F)ccc2c1`, the remaining at 0.5 h, 2 µM in series [6] worked out at 100%; in series [8] it was 88%. Also, the apparent permeability from apical to basolateral (Papp A→B) at 2 h, 5 µM in [7] stood at 7.3 ×10⁻⁶ cm/s. Also, the IC50 in [1] was over 50000 nM; in series [2] it was 190 nM; in series [3] it was 70 nM; in [4], 740 nM; in [5], over 50000 nM.

For the compound `CCN1CCC(n2nc(-c3ccnc(NC4CCOCC4)c3)n(-c3ccc4ccccc4c3)c2=O)CC1`, the IC50 in series [2] was 2000 nM; in [3], 280 nM; in series [4], over 5000 nM.

As to `O=c1[nH]nc(-c2ccnc(Nc3nccs3)c2)n1-c1ccc2ccccc2c1`, the IC50 in series [1] was over 50000 nM; in series [2], 650 nM; in [3], 210 nM; in [4], over 50000 nM; in series [5] it was over 50000 nM.

For `Nc1ccc2cc(-n3c(-c4ccnc(NC5CCOCC5)c4)n[nH]c3=O)ccc2c1`, the IC50 in series [1] is over 50000 nM; in series [2], 5300 nM; in series [3], 950 nM; in series [4], 1700 nM; in series [5], over 50000 nM.

As to `O=c1[nH]nc(-c2ccncc2)n1-c1ccc2ccccc2c1`, the half-inhibitory concentration (IC50) is over 50000 nM in [1]; 32000 nM in series [2]; 16000 nM in series [3]; over 50000 nM in [4]; over 50000 nM in [5].

With `O=c1[nH]nc(-c2ccnc(Nc3ccccc3)c2)n1-c1ccc2ccccc2c1`, the concentration for half-maximal inhibition (IC50) in series [1] was over 50000 nM; in series [2], 470 nM; in series [3], 61 nM; in [4], 5700 nM; in [5], over 50000 nM.

Regarding `Nc1cccc2ccc(-n3c(-c4ccnc(NC5CCOCC5)c4)n[nH]c3=O)cc12`, the IC50 in [1] was over 50000 nM; in series [2], 570 nM; in [3], 94 nM; in series [4], 2600 nM; in [5], over 50000 nM.

For `CC(=O)Nc1cc(-c2n[nH]c(=O)n2-c2ccc3ccccc3c2)ccn1`, the IC50 in series [1] is over 50000 nM; in [2], 1500 nM; in [3], 410 nM; in [4], 7200 nM; in series [5], over 50000 nM.

As for `O=c1[nH]nc(-c2ccnc(NC3CCOCC3)c2)n1-c1ccc2cccc(Cl)c2c1`, the IC50 in series [2] was 150 nM; in series [3], 14 nM; in series [4] it was 110 nM.

On to `O=c1[nH]nc(-c2ccnc(NC3CCOCC3)c2)n1-c1ccc2cc(Br)ccc2c1`, for which the IC50 is over 50000 nM in series [1]; 780 nM in series [2]; 430 nM in series [3]; 4200 nM in [4]; over 50000 nM in [5].

As for `O=c1n(C2CCN(CC(F)(F)F)CC2)nc(-c2ccnc(NC3CCOCC3)c2)n1-c1ccc2ccccc2c1`, the IC50 was found to be 170 nM in [2], 36 nM in series [3] and 900 nM in series [4].

For the compound `O=c1[nH]nc(-c2ccnc(Nc3ccccn3)c2)n1-c1ccc2ccccc2c1`, the 50% inhibitory concentration (IC50) in series [1] is over 50000 nM; in [2], 110 nM; in series [3], 40 nM; in series [4], 2200 nM; in series [5] it was over 50000 nM.

In the case of `O=c1[nH]nc(-c2ccnc(NC3CCOCC3)c2)n1-c1ccc2cccc(F)c2c1`, the IC50 was over 50000 nM in series [1]; 380 nM in series [2]; 54 nM in series [3]; over 500 nM in series [4]; over 50000 nM in [5].

Regarding `O=c1[nH]nc(-c2ccnc(NC3CCC3)c2)n1-c1ccc2ccccc2c1`, the half-maximal inhibitory concentration (IC50) in series [1] was over 50000 nM; in [2], 220 nM; in series [3], 70 nM; in series [4], 1800 nM; in series [5] it was over 50000 nM.

As to `O=c1n(C2CCNCC2)nc(-c2ccnc(NC3CCOCC3)c2)n1-c1ccc2ccccc2c1`, the half-inhibitory concentration (IC50) was over 50000 nM in series [1]; 530 nM in [2]; 160 nM in [3]; 4500 nM in series [4]; over 5000 nM in series [5].

Consider `COC(=O)N1CCC(n2nc(-c3ccnc(NC4CCOCC4)c3)n(-c3ccc4ccccc4c3)c2=O)CC1`, for which the 50% inhibitory concentration (IC50) was over 50000 nM in series [1]; 58 nM in series [2]; 24 nM in series [3]; 360 nM in [4]; over 5000 nM in [5].

Take `O=c1[nH]nc(-c2ccnc(NC3CC3)c2)n1-c1ccc2ccccc2c1`: the half-inhibitory concentration (IC50) in series [1] is over 50000 nM; in [2] it was 390 nM; in [3], 130 nM; in [4], 3900 nM; in series [5] it was over 50000 nM.

As to `O=c1n(CC2CCOCC2)nc(-c2ccnc(NC3CCCCC3)c2)n1-c1ccc2ccccc2c1`, the half-inhibitory concentration (IC50) in [1] was over 50000 nM; in series [2] it was 61 nM; in series [3], 22 nM; in [4], 420 nM; in series [5] it was over 50000 nM.

Consider `O=C(Nc1cc(-c2n[nH]c(=O)n2-c2ccc3ccccc3c2)ccn1)C1CC1`, for which the IC50 is over 50000 nM in series [1]; 440 nM in series [2]; 120 nM in series [3]; 4600 nM in series [4]; over 50000 nM in [5].

As to `O=c1n(C2CCOC2)nc(-c2ccnc(NC3CCOCC3)c2)n1-c1ccc2ccccc2c1` (stereo not given), the remaining at 0.5 h, 2 µM in series [6] stood at 1.6%; in series [8], 27%. Also, the Papp A→B at 2 h, 5 µM in series [7] came to 21.8 ×10⁻⁶ cm/s. Moreover, the concentration for half-maximal inhibition (IC50) in [1] is over 50000 nM; in series [2], 320 nM; in [3] it was 92 nM; in series [4], 3800 nM; in [5], over 50000 nM. For the same compound, the Ratio in [9] is 1.6.

Consider `O=C(Nc1cc(-c2n[nH]c(=O)n2-c2ccc3ccccc3c2)ccn1)c1ccccc1`, for which the IC50 in [1] was over 50000 nM; in [2] it was 4400 nM; in series [3], 590 nM; in series [4] it was over 50000 nM; in [5] it was over 50000 nM.

Take `O=c1[nH]nc(-c2ccnc(NC3CCCC3)c2)n1-c1ccc2ccccc2c1`: the IC50 is over 50000 nM in series [1]; 350 nM in [2]; 130 nM in series [3]; over 50000 nM in series [4]; over 50000 nM in series [5].

Turning to `O=c1[nH]nc(-c2ccnc(Nc3cccnc3)c2)n1-c1ccc2ccccc2c1`, the IC50 in series [1] is over 50000 nM; in series [2], 950 nM; in series [3], 250 nM; in [4], 3300 nM; in series [5], 14000 nM.
